# Experimental data taken from US20130158098A1, “Alkenyl Substituted Cycloaliphatic Compounds as Chemical Inducers of Proximity” (priority 2010, published 2013).
# “Also recorded” adds a separate entry of the source.
# Key:
# [1] = target: T1, VP16-PYLcs and Gal4 DBD-ABIcs (Arabidopsis thaliana, UniProt Q8VZS8); assay: ABA-induced GFP reporter activation in various cell lines; assay type: cell-based; conditions: 100 μM, 24 h; CHO, HEK 293, Cos7, NIH3T3, TC1 cells
# T1 construct: HA (from the reverse primer); expressed in transfected cells; host or cells: CHO; also HEK 293/293T, NIH3T3, COS7, B35, Jurkat, E14, TC1, MEF
# T1 sequence (Q8VZS8 33-209): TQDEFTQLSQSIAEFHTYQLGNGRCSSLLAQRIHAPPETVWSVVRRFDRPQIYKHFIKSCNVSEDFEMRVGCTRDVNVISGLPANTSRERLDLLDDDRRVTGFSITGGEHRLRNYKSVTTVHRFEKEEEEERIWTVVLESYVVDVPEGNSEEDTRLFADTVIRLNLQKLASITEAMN
# T1 sequence (P49597 126-423 partner): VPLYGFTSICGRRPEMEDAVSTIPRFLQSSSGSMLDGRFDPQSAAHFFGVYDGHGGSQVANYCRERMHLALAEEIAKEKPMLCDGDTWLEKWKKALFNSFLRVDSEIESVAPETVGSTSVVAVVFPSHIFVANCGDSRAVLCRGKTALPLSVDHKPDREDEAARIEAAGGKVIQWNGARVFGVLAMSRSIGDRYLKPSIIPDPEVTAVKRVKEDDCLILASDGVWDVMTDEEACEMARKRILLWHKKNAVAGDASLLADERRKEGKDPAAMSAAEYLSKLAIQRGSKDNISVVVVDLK
# Text: Activation construct: A fragment of PYL1 (one of PYR/PYL/RCAR members) (aa 33-209, also referred to as “PYLcs”) was linked to a transcriptional activation domain and a fragment of ABI1 (one of PP2C members) (aa 126-423, SEQ ID NO:2, also referred to as “ABIcs”) was linked to a DNA binding domain using recombinant DNA methods. In the constructs illustrated in FIG. 1 and FIG. 2, PYL1 (“PYLcs”) is fused to the VP16 activation domain and ABI1 (“ABIcs”) is fused to the Gal4 DNA binding domain. These two regulatory elements are linked by IRES and driven by the SV40 early promoter. Reporter constructs: Full length Luciferase is driven by Fos gene minimal promoter with 5 copies of Gal4 DNA binding sites immediately upstream of Fos promoter. GFP reporter is driven by IL2 minimal promoter with 5×Gal4 DNA binding sites upstream.
# ABA regulated transcriptional activation is applicable to various cell lines from different origins besides CHO cells, as shown in FIG. 7. […] 100 μM of ABA was then added to the cell culture and cells were observed under fluorescence microscope for GFP expression after another 24 h.
# [2] = Bioavailability of ABA in mice (serum tested by luciferase activation); assay type: in vivo, mouse
# Description: Mice were housed in the Stanford University Research Animal Facility in accordance with federal and institutional guidelines. Mice aged 6 to 8 weeks and weighing about 30 g were orally gavaged with 10 mg of ABA in EtOH/Tween 20/Cremophor (4:3:1; […] or just vehicle with syringes. Blood was collected from the tails of mice at the indicated time after gavage and left on ice for 20 min. After blood was coagulated, the samples were spun down at 1500 g for 20 min and serum was collected for immediate use or snap-frozen and stored at −80° C.
# FIG. 5A illustrates the bio-availability of ABA in mice by intraperitoneal injection. With 100 mg ABA/kg mouse body weight, ABA is rapidly available in 30 minutes and still remains in the system after 4 hours. ABA was intraperitoneally injected to mice and serum was collected at indicated time. ABA containing serum was then added as 10% (v/v) of culture media to the CHO cell culture for 24 hours and cells were assayed for luciferase activity. The CHO cells were pre-transfected with the activation and reporter DNA constructs for 24 hours before adding serum. […] With 340 mg ABA/kg mouse body weight, ABA is rapidly available in 1 hour, remains in the system after 8 hours and returns to background level after 24 hours. ABA was orally administrated by gavage to mice and serum was collected at indicated time. ABA containing serum was then added as 10% (v/v) of culture media to the CHO cell culture for 24 hours and cells were assayed for luciferase activity. The CHO cells were pre-transfected with the activation and reporter DNA constructs for 24 hours before adding serum.
# In plants, ABA had been reported to be unstable due to active enzymatic degradation (Cutler, A. J. and Krochko, J. E. (1999) Formation and breakdown of ABA. Trends Plant Sci. 4, 472-478). To examine its stability in mammalian cells, ABA was incubated with CHO cells for up to 48 hours, after which the functional ABA concentration was assayed by the ability of the ABA-incubated cell culture medium to induce luciferase production in cells expressing VP16-PYLcs and wild-type Gal4 DBD-ABIcs. […] For potential therapeutic application in humans, the stability of ABA in the serum and its bioavailability in mice was examined (FIG. 16B). The activity of residual ABA in the serum was measured by its ability to induce the transcriptional activation of the luciferase reporter in cells expressing the ABA-activator cassette. The stability of ABA in isolated serum was tested by incubating ABA with fresh human serum or heat-inactivated fetal bovine serum (FBS) for up to 48 hours and then applying the serum as the ABA source to activate luciferase. […] Using this assay, the bioavailability in mice was evaluated. When ABA was injected intraperitoneally, it entered circulation rapidly, and activity was detectable within 30 min (FIG. 33).
# [3] = intraperitoneal injection, 100 mg ABA/kg
smiles,measurement,setting,value
"CC1=CC(=O)CC(C)(C)C1(O)/C=C/C(C)=C/C(=O)O (stereo not drawn) [ABA, abscisic acid]",GFP reporter expression,[1],only expressed after ABA was added
same,oral availability,[2],orally bioavailable; also recorded: orally available
same,time to detectable activity in circulation,[2]; injected intraperitoneally,≤ 30 min
same,time ABA still remains in the system,[2]; [3],≥ 4 h
same,time at which ABA is available in serum,[2]; [3],30 min
same,half-life,"[2]; mouse, serum, po, 340 mg/kg, administered orally",~4 h
same,time ABA remains in the system,"[2]; oral gavage, 340 mg ABA/kg",≥ 8 h
same,time at which ABA is available in serum,"[2]; oral gavage, 340 mg ABA/kg",60 min
same,time of return to background level,"[2]; oral gavage, 340 mg ABA/kg",24 h
